Source: US10286039B2, “Compositions and methods for treating neutropenia” (Children's Hospital Los Angeles, priority 2014, dated 2019)

B1: GCSF: granulocyte colony-stimulating factor (protein, UniProt P09919 31-207, looked up)
Granulocyte …: TPLGPASSLPQSFLLKCLEQVRKIQGDGAALQEKLVSECATYKLCHPEELVLLGHSLGIPWAPLSSCPSQALQLAGCLSQLHSGLFLYQGLLQALEGISPELGPTLDTLQLDVADFATTIWQQMEELGMAPALQPTQGAMPAFASAFQRRAGGVLVASHLQSFLEVSYRVLRHLAQP

What was measured:
[1] = system: neutropenic mice; assay: Neutrophil recovery in CPA-induced neutropenic mice at neutrophil-decrease stage; assay type: in vivo, C57BL6/J mice
Description: To evaluate Am80 effect in vivo, we first tested half maximal effective concentration (EC50) of different human equivalent high, medium, and low doses of Am80 and GCSF (FIG. 5a) on regenerating mature neutrophils in neutropenic mice. Normal C57BL6/J mice were injected with a single dose of cyclophosphamide (CPA) to reduce mouse neutrophils. At 4 hr post-injection of CPA, mice were treated with vehicle, Am80, GCSF, or Am80-GCSF for consecutive 3 days before mice were sacrificed (FIG. 5b). […] Data represent 2 independent experiments with similar results.

[2] = system: S. aureus; assay: Neutrophil bactericidal activity, neutropenic mice at neutrophil-decrease stage, medium dose; assay type: in vivo, C57BL/6J mice; settings: for neutrophil induction by bacterial infection: neutrophil-decrease stage, Vetscan analysis of PB
Description: FIG. 6A experimental design. C57BL/6J mice (n=19) were randomly divided into five groups (3 for control and 4 for each of experimental groups). Mouse neutropenia was induced by IP injection of CPA on day 0. After 4 hrs of CPA injection, different regimens were given to mice once a day, with Am80 by oral or GCSF by SC or vehicle by oral. Mice were challenged by 6.3×10^6 CFU of S. aureus on day 2 via tail vein injection. After 3 hrs infection, each 100 μl blood was collected from tails for analysis of initial bactericidal activity of neutrophils. The mice were sacrificed 16 hrs post-infection, by which PB and heart were harvested. (FIG. 6B) Vetscan analysis of WBC and neutrophils in PB. Except blank mice, neutrophil induction was not observed in all other groups (FIG. 6C-E). Bactericidal activities of neutrophils were determined 3 hr (FIG. 6C) and 16 hrs post-infection (FIG. 6D) in PB as well as in heart (panel E), by using blood agar analysis of viable extracellular bacteria. […] A+G: Am80-GCSF.

[3] = system: S. Aureus; assay: Neutrophil bactericidal activity and production, neutropenic mice at neutrophil-recovery stage, lower dose; assay type: in vivo, Mice (C57BL6/J)
Description: Mice (C57BL6/J) were randomly divided into five groups (3 control and 4 for each experimental group, n=19 mice). As illustrated (FIG. 8a), mice were given regimens 2 days post-CPA injection (200 mg/kg). After consecutive 3 days of treatment, mice were challenged with S. Aureus for up to 16 hrs before euthanasia. We found a significant increase of peripheral blood (PB) neutrophils in all groups after bacterial infection (FIG. 8b). PB collected at 3 and 16 hrs-post infection was used for analyzing of neutrophil bactericidal activities. […] However, with low doses of Am80-GCSF treatment, Am80 can effectively differentiate GCSF-regenerated granulocytic precursors into mature neutrophils against microbial infection. P<0.05; **: P<0.01; ***: P<0.005.

[4] = system: CD34+ cells; assay: Western blot and gene transcription in CD34+ cells; assay type: cell-based
Excerpt: A novel gene transcription pattern is induced by Am80, in contrast to All-trans retinoic acid (ATRA or RA).

[5] = system: S. aureus; assay: Neutrophil bactericidal activity, neutropenic mice at neutrophil-decrease stage, lower dose; assay type: in vivo, C57BL/6J mice; settings: for neutrophil induction by bacterial infection: neutrophil-decrease stage, Vetscan analysis of PB
Description: Mice (C57BL6/J) were randomly divided into five groups (3 control and 4 for each experimental group, n=19 mice). C57BL/6J mice (n=19) were randomly divided into five groups (3 for control and 4 for each of experimental groups). The procedures for induction of mouse neutropenia and treatment are the same to the medium dose test (see slide 6). Mice were challenged with 6.3×10^6 CFU of S. aureus on day 2 via tail vein injection. After 3 hrs infection, each 100 μl blood was collected from tails for determining initial bactericidal activities of neutrophils. The mice were sacrificed on day 3, by which PB and spleen were harvested. (FIG. 7A). Vetscan analysis of WBC and neutrophils in PB was performed (FIG. 7B). Except blank mice, neutrophil induction was not observed in all other groups (FIG. 7C-E). Bactericidal activities of neutrophils were determined 3 hr (panel C) and 16 hrs post-infection (panel D) in PB as well as in spleen (panel E), using blood agar analysis of viable extracellular bacteria.

[6] = system: S. Aureus; assay: Survival of neutropenic mice enduring continual bacteremia; assay type: in vivo; settings: treatment 24 hrs post-CPA
Description: If Am80 can indeed differentiate GCSF-regenerated great amount of granulocytic precursors into mature neutrophils against infection, Am80-GCSF combination should effectively reduce infection-related mortality in cancer chemotherapy induced neutropenia. We tested this hypothesis by using neutropenic mice experiencing bacteremia through entire neutropenia period. As illustrated (FIG. 9A), mice were given different regimens 4 hrs post-CPA injection for up to day 8. S. Aureus infection was performed on day 3, and survival rate was calculated on day 9. […] To evaluate bactericidal ability of regenerated neutrophils in survived mice, the survived blank and Am80-GCSF mice on day 11 were further infected with S. Aureus for 15 min before euthanasia. A parallel analysis of freshly isolated PB with both Giemsa and Gram stains determined neutrophil phagocytosis in infected mice vs. free of bacteremia in non-infected mice (FIG. 9E). Since GCSF is usually provided to CCIN ≥24 hrs post-chemo drug, we further tested low and medium doses of Am80-GCSF treatment 24 hrs post-CPA, as illustrated (FIG. 9F, 9J), with two independent experiments for each of doses.

[7] = system: AML BM primary blasts; assay: Proliferation of primary blasts from acute myeloid leukemia patients; assay type: cell-based, human
Description: Proliferation of PB primary blasts from acute myeloid leukemia patients was assayed (FIG. 13A) and quantified P<0.05 (FIG. 13B). Granulocytic morphology of AML PB primary blasts was analyzed (FIG. 13C) and quantified; Am80 vs. G-CSF, P<4.0E-8; Am80 vs. control, P<6.02E-7 (FIG. 13D).
Proliferation of BM primary blasts from acute myeloid leukemia patients was assayed (FIG. 13E) and quantified at day 8, Am80 vs. G-CSF, P<0.008; G-CSF vs. control, P<0.032 (FIG. 13F). Granulocytic morphology of AML BM primary blasts was analyzed (FIG. 13G) and quantified; Am80 vs. G-CSF, P<9.9E-4; Am80 vs. RA, P<1.0E-4 (FIG. 13H).

[8] = system: NB4 cells; assay: Proliferation, granulocytic differentiation and ROS production in NB4 cells; assay type: cell-based; settings: day 6, in the presence of either fMLP or PMA

| Molecule | sustaining neutrophil levels (PB) ([1]; low and medium doses, 3 days treatment from 4 hr post-CPA, compared to all other treatments) | granulocytic morphology differentiation (PB) ([1]; low doses vs medium doses) | neutrophil bactericidal activity ([2]; 3 hr and 16 hrs post-infection in PB and heart, viable extracellular bacteria) | neutrophil induction by bacterial infection [2] | neutrophil production in BM and PB [3] | C/EBPε, CD18, and granule LL-37 mRNA levels [4] | p21Cip/Kip mRNA levels [4] | MAT1 fragmentation ([4]; Western blot) | retinoic acid receptor (RARα) hypophosphorylation ([4]; Western blot) | neutrophil bactericidal activity ([5]; 3 hr and 16 hrs post-infection in PB and spleen, viable extracellular bacteria) | neutrophil induction by bacterial infection [5] | differentiation of 3rd layer BM cells, granulocytic morphologic analysis ([1]; medium dose GCSF vs low doses of Am80-GCSF) | recovery of 3rd layer BM cells ([1]; medium dose, Percoll separation of bone marrow cells) | survival rate ([6]; low-dose test, S. Aureus infection) [%] | survival rate ([6]; medium-dose test, no statistical difference between groups) [%] | growth rate of AML BM primary blasts ([7]; G-CSF vs. control, P<0.018) | growth of non-APL AML patient blasts ([7]; compared to those treated with Am80 or ATRA) | neutrophil bactericidal activity (killing assays) ([3]; PB at 3 and 16 hrs post-infection) | ROS production [8] |
| --- | --- | --- | --- | --- | --- | --- | --- | --- | --- | --- | --- | --- | --- | --- | --- | --- | --- | --- | --- |
| CC1(C)CCC(C)(C)c2cc(NC(=O)c3ccc(C(=O)O)cc3)ccc21 [Am80, tamibarotene] | better EC50 effect on sustaining neutrophil levels | enhanced granulocytic morphology differentiation better than did medium doses | significantly increased neutrophil bactericidal activity | not instigated | induced least number of neutrophils in both BM and PB | significant up-regulation | decrease | progressive induction | progressive induction | greater bactericidal activity than those induced by G-CSF or Am80+GCSF | not instigated | – | – | – | – | – | – | – | – |
| B1 | – | – | – | not instigated | induced significantly more neutrophils in BM while similar amount in PB compared to Am80-GCSF | – | – | – | – | – | not instigated | less differentiated than those induced by low doses of Am80-GCSF | induced highest recovery | 12.5 | 11.1 | Higher growth rate | promotes the growth | significantly low bactericidal activity compared to those induced by Am80-GCSF | fails to induce ROS production |
